In patent publication US12269816B2, “Benzothiophene compound, preparation method therefor and use thereof” (SICHUAN KELUN-BIOTECH BIOPHARMACEUTICAL CO., LTD., priority 2019, dated 2025):

How the values were obtained:
Format in all cases: cell-based
[1] = test system: STING and its downstream proteins TBK1 and IRF3 in THP-1 cells; assay: Western blotting of phosphorylation of STING signal pathway proteins in human THP-1 cells; conditions: 3 hours, protein blotting, FIGS. 1-5, result in words
Source text: (§1) In this experiment, the changes in the phosphorylation levels of STING and its downstream proteins TBK1 (TANK-binding kinase 1) and IRF3 (interferon regulatory factor 3) were detected by protein blotting to evaluate the agonistic effect of the test compounds on the STING signal pathway at the cellular level.
The THP-1 cells in the logarithmic phase were centrifuged, and resuspended in a cell culture solution to a density of […]. The cell suspension was inoculated into a 12-well cell culture plate (Corning) at 0.5 mL/well. The compound to be tested was diluted with a cell culture solution to 2× working solution concentration (control compounds 1 and 2: 60 μM; compounds 1 and 3: 0.6 μM, 6 μM, and 60 μM; compounds 2, 4, 6 and 8: 6 μM, 20 μM, and 60 μM). 0.5 mL of the diluted solution of the compound was added into a 12-well plate (500 μl of the culture solution containing 2% DMSO was added into the negative control well), and the plate was incubated in a cell incubator for 3 hours. After the incubation, the cells were collected by centrifugation, lysed with 60 μL cell lysis buffer (CST) for 30 minutes, and centrifuged at 12,000 rpm for 15 minutes. The supernatant was collected to determine the protein concentration, and then an appropriate amount of 5× protein loading buffer was added. The mixture was heated at 95° C. for 10 minutes to prepare a protein electrophoresis sample. Finally protein blotting was performed to detect the phosphorylation level of the corresponding protein. The primary antibodies used in the protein blotting were purchased from CST: STING (D2P2F) rabbit mAb, Phospho-STING (Ser366) rabbit mAb, Phospho-IRF3 (Ser396) (D601M) rabbit mAb, IRF3 (D83B9) rabbit mAb, TBK1/NAK (D1B4) rabbit mAb, Phospho-TBK1/NAK (Ser172) (D52C2) XP® rabbit mAb, and GAPDH (D16H11) rabbit mAb; and the secondary antibody horseradish peroxidase-conjugated goat anti-rabbit IgG (H+L) was purchased from Zsgb-bio.

[2] = test system: STING and its downstream proteins TBK1 and IRF3 in Raw264.7 cells; assay: Western blotting of phosphorylation of STING signal pathway proteins in mouse Raw264.7 cells; conditions: 3 hours, protein blotting, FIGS. 6-7, result in words
Source text: as §1
The Raw264.7 cells in the logarithmic phase were centrifuged, and resuspended in a cell culture solution to a density of 1.6×10^6 cells/mL. The cell suspension was inoculated into a 6-well cell culture plate (Corning) at 1 mL/well. The compound to be tested was diluted with a cell culture solution to 2× working solution concentration (control compounds 1 and 2: 60 μM; compound 8: 0.6 μM, 6 μM, and 60 μM; compounds 2, 4 and 6: 6 μM, 20 μM, and 60 μM). 1 mL of the diluted solution of the compound was added into a 6-well plate (1 mL of the culture solution containing 2% DMSO was added into the negative control well). The plate was placed in a cell incubator, and incubated for 3 hours. After the incubation, the cells were collected by centrifugation, lysed with 60 μL cell lysis buffer (CST) for 30 minutes, and centrifuged at 12000 rpm for 15 minutes. The supernatant was collected to determine the protein concentration, and then an appropriate amount of 5× protein loading buffer was added. The mixture was heated at 95° C. for 10 minutes to prepare a protein electrophoresis sample. Finally, protein blotting was performed to detect the phosphorylation level of the corresponding protein. The primary antibodies used in the protein blotting were purchased from CST: STING (D2P2F) rabbit mAb, Phospho-STING (Ser365) rabbit mAb, Phospho-IRF3 (Ser396) (D601M) rabbit mAb, IRF3 (D83B9) rabbit mAb, TBK1/NAK (D1B4) rabbit mAb, Phospho-TBK1/NAK (Ser172) (D52C2) XPV rabbit mAb, GAPDH (D16H11) rabbit mAb; and the secondary antibody horseradish peroxidase-conjugated goat anti-rabbit IgG (H+L) was purchased from Zsgb-bio.

[3] = test system: STING pathway cytokine mIFN-β in mouse Raw264.7 cells; assay: ELISA of STING pathway cytokine mIFN-β expression in mouse Raw264.7 cells; conditions: for Emax: highest expression of mIFN-β; for Emax / EC50: 6 h, ELISA; for EC50: mIFN-β expression; for agonistic effect on the expression of mIFN-β: result in words
Source text: In this experiment, the expression of STING signal pathway cytokine mIFN-β was detected in Raw264.7 cells (Nanjing Cobioer) by the ELISA method, so as to evaluate the agonistic effect of the compound to be tested on the expression of STING pathway cytokine mIFN-β at the cellular level.
Raw264.7 cells (Nanjing Cobioer) in the logarithmic phase were centrifuged, and resuspended in a cell culture solution to a density of 1.6×10^6 cells/ml. The cell suspension was inoculated into a 24-well cell culture plate (Corning) at 250 μL/well. The mother liquor of the compound to be tested was gradiently diluted with a cell culture solution to obtain a 2× working concentration diluted solution (control compound 1 was diluted at a 3-fold gradient: 200, 66.67, 22.22, 7.41, 2.47, 0.82, 0.27 and 0 μM; control compound 2 was diluted at a 2-fold gradient: 200, 100, 50, 25, 12.5, 6.25, 3.125 and 0 μM; and compounds 4, 6 and 8 were diluted at a 4-fold gradient: 200, 50, 12.5, 3.13, 0.78, 0.20, 0.049 and 0 μM). The 2× working concentration diluted solution of the compound was added into a 24-well plate (250 μl of the culture solution containing 2% DMSO was added into the negative control well) at 250 μL/well. The culture plate was then placed in a cell incubator, and incubated for 6 h. After the cell incubation, the supernatant was collected by centrifugation at 300 g×5 min, and the mIFN-β content (pg/ml) in the cell culture supernatant was detected according to the operating instructions of the VeriKinem Mouse IFN Beta ELISA Kit from PBL (obtained by conversion of the OD450 nm absorbance-mIFN-β standard concentration standard curve and the OD450 nm absorbance value read by the microplate reader). EC50 was calculated through log(agonist) vs. response—Variable slope fitting by the Graphpad Prism software, and the experimental results are shown in Table 3.
In the table, EC50 refers to the concentration of a compound when the expression of mIFN-β generated by stimulation of the compound reaches half of Emax; and Emax refers to the highest expression of mIFN-β generated by stimulation of the compound.

## COc1cc2sc(C(=O)N(C)CCC(=O)O)cc2cc1OCCCOc1cc2sc(C(=O)CCC(=O)O)cc2cc1OC [Compound 4, 4-(6-(3-((2-((2-carboxyethyl)(methyl)carbamoyl)-6-methoxybenzo[b]thiophen-5-yl)oxy)propoxy)-5-methoxybenzo[b]thiophen-2-yl)-4-oxobutanoic acid]
[1]
  agonistic effect on the phosphorylation levels of STING, TBK1 and IRF3: strong agonistic effects
[2]
  agonistic effect on the phosphorylation levels of STING, TBK1 and IRF3: strong agonistic effects
[3]
  Emax: 1082.21 pg/mL
  EC50: 3.6 µM
  agonistic effect on the expression of mIFN-β: strong agonistic effect

## COc1cc2sc(C(=O)CCC(=O)O)cc2cc1OCCCOc1cc2cc(C(=O)N(C)CCC(=O)O)sc2cc1OC [Compound 8, 4-(5-(3-((2-((2-carboxyethyl)(methyl)carbamoyl)-6-methoxybenzo[b]thiophen-5-yl)oxy)propoxy)-6-methoxybenzo[b]thiophen-2-yl)-4-oxobutanoic Acid]
[1]
  agonistic effect on the phosphorylation levels of STING, TBK1 and IRF3: strong agonistic effects
[2]
  agonistic effect on the phosphorylation levels of STING, TBK1 and IRF3: strong agonistic effects
[3]
  Emax: 1176.75 pg/mL
  EC50: 0.56 µM
  agonistic effect on the expression of mIFN-β: strong agonistic effect

## COc1cc2sc(C(=O)CCC(=O)O)cc2cc1OCCCOc1cc2sc(C(=O)N(C)CCC(=O)O)cc2cc1OC [Compound 6, 4-(5-(3-((2-((2-carboxyethyl)(methyl)carbamoyl)-5-methoxybenzo[b]thiophen-6-yl)oxy)propoxy)-6-methoxybenzo[b]thiophen-2-yl)-4-oxobutanoic acid]
[1]
  agonistic effect on the phosphorylation levels of STING, TBK1 and IRF3: strong agonistic effects
[2]
  agonistic effect on the phosphorylation levels of STING, TBK1 and IRF3: strong agonistic effects
[3]
  Emax: 1012.51 pg/mL
  EC50: 3.8 µM
  agonistic effect on the expression of mIFN-β: strong agonistic effect
